Experimental data as given in patent publication US20020177543A1, “Method for determining the activity of uncoupling proteins (UCPs) by monitoring NAD(P)H consumption” (priority 2000, published 2002).

Assays:
[1] = target: T1, UCP1 (Rattus norvegicus, UniProt P04633); test: Respiration rate by monitoring NADH fluorescence (NADH consumption), mitochondria that express UCP1; assay type: biochemical; conditions: GDP 3 mM, palmitate 48 μM
T1 construct: made in house; host or cells: Saccharomyces cerevisiae W303, vector pYeDP-UCP (gal-cyc promoter); isolated mitochondria
T1 sequence (P04633 1-307): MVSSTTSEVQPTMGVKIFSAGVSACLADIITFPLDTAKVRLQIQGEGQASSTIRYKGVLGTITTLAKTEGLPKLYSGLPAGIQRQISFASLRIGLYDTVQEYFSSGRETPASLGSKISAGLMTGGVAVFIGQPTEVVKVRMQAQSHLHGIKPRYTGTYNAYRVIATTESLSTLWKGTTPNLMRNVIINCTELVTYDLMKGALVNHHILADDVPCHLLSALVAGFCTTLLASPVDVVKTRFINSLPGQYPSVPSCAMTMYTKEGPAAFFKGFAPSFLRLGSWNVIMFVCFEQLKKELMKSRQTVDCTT
Experimental: To isolate the mitochondria required for the subsequent experiments, yeasts of the strain Saccharomyces cerevisiae W303 that express UCP1 were inoculated into SP growth medium (0.67% nitrogen substrate, 0.1% casamino acids, 20 mg/ml tryptophan, 40 mg/ml adenine, 0.1% phosphate, 0.12% ammonium sulphate, 0.1% glucose, 2% lactic acid, pH 4.5) 36 hours before extraction of the mitochondria; 12 or 14 hours before extraction they were diluted in SG medium (0.67% nitrogen substrate, 0.1% casamino acids, 20 mg/ml tryptophan, 40 mg/ml adenine, 2% galactose pH 4.5) adjusting the optical density at 600 nm to between 0.3-0.4 absorbance units [Arechaga I, Raimbault S. et al., (1993) Cysteine residues are not essential for uncoupling protein function. Biochem. J. 296. 693-700]. […]
The second method, which is the object of the present invention, is based on determining the respiration rate by measuring the consumption of NAD(P)H. All the assays were performed on a 96-well micro-titre standardized plate (Nunc., Denmark). […] Fluorescence measurements were done using a POLAR star Galaxy plate reader (BMG Laboratories OmbH, Offenburg, Germany). […] Changes in the fluorescence signal were determined every 30 seconds in each well with an average of 6-9 readings for each measurement. […] From these values, fluorescence values for the suspension of mitochondria in the absence of NADH (blank) were subtracted. […]

[2] = tested on: Control mitochondria; test: Respiration rate from oxygen consumption (oxygen electrode), Control mitochondria; assay type: biochemical, Saccharomyces cerevisiae; conditions: CONTROL mitochondria of S. cerevisiae; GDP 3 mM, palmitate 48 μM, FCCP 10 μM (uncoupled respiration); basal 144
[3] = target: T1, UCP1; test: Respiration rate from oxygen consumption (oxygen electrode), mitochondria that express UCP1; assay type: biochemical; conditions: UCP1 mitochondria of S. cerevisiae; GDP 3 mM, palmitate 48 μM, FCCP 10 μM (uncoupled respiration); basal 218
Experimental: To isolate the mitochondria required for the subsequent experiments, yeasts of the strain Saccharomyces cerevisiae W303 that express UCP1 were inoculated into SP growth medium (0.67% nitrogen substrate, 0.1% casamino acids, 20 mg/ml tryptophan, 40 mg/ml adenine, 0.1% phosphate, 0.12% ammonium sulphate, 0.1% glucose, 2% lactic acid, pH 4.5) 36 hours before extraction of the mitochondria; 12 or 14 hours before extraction they were diluted in SG medium (0.67% nitrogen substrate, 0.1% casamino acids, 20 mg/ml tryptophan, 40 mg/ml adenine, 2% galactose pH 4.5) adjusting the optical density at 600 nm to between 0.3-0.4 absorbance units [Arechaga I, Raimbault S. et al., (1993) Cysteine residues are not essential for uncoupling protein function. Biochem. J. 296. 693-700].
The mitochondria were prepared following a procedure based on that of Guerin et al., [Guerin B, Labbe P. Somlo M (1979) Preparation of yeast mitochondria (Saccharomyces cerevisiae) with good P/O and respiratory ratios Methods Enzymol. 55: 149-159]. The protoplasts are prepared by enzymatic digestion of the cell wall with cytohelicase and after their homogenization mitochondria are isolated by differential centrifugation [Arechaga I., Raimbault S. et al., (1993) Cysteine residues are not essential for uncoupling protein function. Biochem. J. 296. 693-700]. […]

`Nc1nc2c(ncn2[C@@H]2O[C@H](COP(=O)(O)OP(=O)(O)O)[C@@H](O)[C@H]2O)c(=O)[nH]1` [GDP] was tested, and the “Change in rate of NADH consumption compared to basal levels (in words)” value [1] was “reduced compared to basal levels”, the Oxygen consumption [2] was 155 nmoles of oxygen consumed per minute and per mg of protein and the Oxygen consumption [3] was 149 nmoles of oxygen consumed per minute and per mg of protein.
